Test results as given in publication PMC11871066, “Structure-based discovery of hydrocarbon-stapled paxillin peptides that block FAK scaffolding in cancer” (Nature Communications, 2025).

Columns and labels:
Test in all cases: Eurofins KINOMEscan profiling, 97 kinases
[1] = target: 97 kinases (kinase named in endpoint) (Homo sapiens, UniProt O14757); conditions: read-out: % Ctrl, CHEK1
Protocol: (§1) This experiment was performed by Eurofins KINOMEscan™ Profiling Service. […] The lysates were centrifuged and filtered, the remaining kinases were produced in HEK-293 cells and subsequently tagged with DNA for qPCR detection. […] The liganded beads were blocked with excess biotin and washed with blocking buffer (SeaBlock (Pierce), 1% BSA, 0.05% Tween-20, 1 mM DTT). […] Test compounds were prepared as 100x stocks in 100% DMSO and directly diluted into the assay. All reactions were performed in polypropylene 384-well plates in a final volume of 0.02 ml. […] The kinase concentration in the eluates was measured by qPCR.
(§2) (negative control signal - positive control signal)] x 100. ( b) AccompanyingSelectivity Scores or S -scores
(§3) which are quantitative measures of compound selectivity. They are calculated by dividing the number of
(§4) kinases that compounds bind to by the total number of distinct kinases tested, excluding mutant variants.
(§5) S(35)= ( num ber of non -mutant kinases with %Ctrl <35)/(number of non- mutant kinases tested)], S(10)=
(§6) non- mutant kinases with %Ctrl <1)/(number of non- mutant kinases tested)].

[2] = target: 97 kinases (kinase named in endpoint) (Homo sapiens, UniProt O60674); conditions: read-out: % Ctrl, JAK2(JH1domain-catalytic)
Protocol: as §1, §2, §3, §4, §5, §6

[3] = target: 97 kinases (kinase named in endpoint) (Homo sapiens, UniProt P00533); conditions: read-out: % Ctrl, EGFR
Protocol: as §1, §2, §3, §4, §5, §6

[4] = target: 97 kinases (kinase named in endpoint) (Homo sapiens, UniProt P04626); conditions: read-out: % Ctrl, ERBB2
Protocol: as §1, §2, §3, §4, §5, §6

[5] = target: 97 kinases (kinase named in endpoint) (Homo sapiens, UniProt P07333); conditions: read-out: % Ctrl, CSF1R
Protocol: as §1, §2, §3, §4, §5, §6

[6] = target: 97 kinases (kinase named in endpoint) (Homo sapiens, UniProt P08581); conditions: read-out: % Ctrl, MET
Sequence of 97 kinases (kinase named in endpoint) (Homo sapiens, UniProt P08581) (P08581 25-1390): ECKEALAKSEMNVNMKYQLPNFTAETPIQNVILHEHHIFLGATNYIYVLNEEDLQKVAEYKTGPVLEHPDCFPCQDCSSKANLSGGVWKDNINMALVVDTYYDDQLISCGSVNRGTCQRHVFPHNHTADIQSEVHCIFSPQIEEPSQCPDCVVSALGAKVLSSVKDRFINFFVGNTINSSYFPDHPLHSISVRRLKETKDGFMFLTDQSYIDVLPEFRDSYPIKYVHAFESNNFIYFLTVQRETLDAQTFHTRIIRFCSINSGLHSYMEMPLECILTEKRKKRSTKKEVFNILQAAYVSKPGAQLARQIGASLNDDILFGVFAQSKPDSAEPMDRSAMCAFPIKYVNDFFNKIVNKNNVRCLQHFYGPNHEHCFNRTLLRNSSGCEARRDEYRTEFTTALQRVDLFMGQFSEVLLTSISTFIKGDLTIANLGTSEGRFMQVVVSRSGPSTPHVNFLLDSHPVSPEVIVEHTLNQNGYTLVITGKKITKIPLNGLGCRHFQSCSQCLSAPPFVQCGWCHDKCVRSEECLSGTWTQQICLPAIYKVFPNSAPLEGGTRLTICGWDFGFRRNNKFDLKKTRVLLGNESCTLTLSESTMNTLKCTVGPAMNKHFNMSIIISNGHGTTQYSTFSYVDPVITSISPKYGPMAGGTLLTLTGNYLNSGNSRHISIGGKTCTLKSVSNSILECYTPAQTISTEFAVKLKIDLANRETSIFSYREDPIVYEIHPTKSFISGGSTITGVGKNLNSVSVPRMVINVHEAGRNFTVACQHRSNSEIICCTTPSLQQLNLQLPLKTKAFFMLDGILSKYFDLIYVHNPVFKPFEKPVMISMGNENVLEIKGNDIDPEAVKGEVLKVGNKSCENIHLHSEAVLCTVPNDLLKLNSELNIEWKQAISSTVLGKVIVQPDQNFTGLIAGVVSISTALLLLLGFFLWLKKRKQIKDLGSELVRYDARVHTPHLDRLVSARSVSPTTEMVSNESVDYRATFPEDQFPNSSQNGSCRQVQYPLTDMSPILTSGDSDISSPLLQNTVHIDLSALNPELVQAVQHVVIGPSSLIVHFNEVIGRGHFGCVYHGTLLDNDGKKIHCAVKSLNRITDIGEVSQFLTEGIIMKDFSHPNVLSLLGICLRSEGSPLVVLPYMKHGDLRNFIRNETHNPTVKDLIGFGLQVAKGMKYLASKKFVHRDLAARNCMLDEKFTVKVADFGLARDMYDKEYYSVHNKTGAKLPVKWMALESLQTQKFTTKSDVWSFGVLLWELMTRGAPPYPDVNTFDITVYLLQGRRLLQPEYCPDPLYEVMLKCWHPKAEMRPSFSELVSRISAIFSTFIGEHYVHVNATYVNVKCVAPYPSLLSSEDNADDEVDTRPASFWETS
Protocol: as §1, §2, §3, §4, §5, §6

[7] = target: 97 kinases (kinase named in endpoint) (Homo sapiens, UniProt P10721); conditions: read-out: % Ctrl, KIT
Protocol: as §1, §2, §3, §4, §5, §6

[8] = target: 97 kinases (kinase named in endpoint) (Homo sapiens, UniProt P12931); conditions: read-out: % Ctrl, SRC
Protocol: as §1, §2, §3, §4, §5, §6

[9] = target: 97 kinases (kinase named in endpoint) (Homo sapiens, UniProt P22607); conditions: read-out: % Ctrl, FGFR3
Protocol: as §1, §2, §3, §4, §5, §6

[10] = target: 97 kinases (kinase named in endpoint) (Homo sapiens, UniProt P29317); conditions: read-out: % Ctrl, EPHA2
Sequence of 97 kinases (kinase named in endpoint) (Homo sapiens, UniProt P29317) (P29317 24-976): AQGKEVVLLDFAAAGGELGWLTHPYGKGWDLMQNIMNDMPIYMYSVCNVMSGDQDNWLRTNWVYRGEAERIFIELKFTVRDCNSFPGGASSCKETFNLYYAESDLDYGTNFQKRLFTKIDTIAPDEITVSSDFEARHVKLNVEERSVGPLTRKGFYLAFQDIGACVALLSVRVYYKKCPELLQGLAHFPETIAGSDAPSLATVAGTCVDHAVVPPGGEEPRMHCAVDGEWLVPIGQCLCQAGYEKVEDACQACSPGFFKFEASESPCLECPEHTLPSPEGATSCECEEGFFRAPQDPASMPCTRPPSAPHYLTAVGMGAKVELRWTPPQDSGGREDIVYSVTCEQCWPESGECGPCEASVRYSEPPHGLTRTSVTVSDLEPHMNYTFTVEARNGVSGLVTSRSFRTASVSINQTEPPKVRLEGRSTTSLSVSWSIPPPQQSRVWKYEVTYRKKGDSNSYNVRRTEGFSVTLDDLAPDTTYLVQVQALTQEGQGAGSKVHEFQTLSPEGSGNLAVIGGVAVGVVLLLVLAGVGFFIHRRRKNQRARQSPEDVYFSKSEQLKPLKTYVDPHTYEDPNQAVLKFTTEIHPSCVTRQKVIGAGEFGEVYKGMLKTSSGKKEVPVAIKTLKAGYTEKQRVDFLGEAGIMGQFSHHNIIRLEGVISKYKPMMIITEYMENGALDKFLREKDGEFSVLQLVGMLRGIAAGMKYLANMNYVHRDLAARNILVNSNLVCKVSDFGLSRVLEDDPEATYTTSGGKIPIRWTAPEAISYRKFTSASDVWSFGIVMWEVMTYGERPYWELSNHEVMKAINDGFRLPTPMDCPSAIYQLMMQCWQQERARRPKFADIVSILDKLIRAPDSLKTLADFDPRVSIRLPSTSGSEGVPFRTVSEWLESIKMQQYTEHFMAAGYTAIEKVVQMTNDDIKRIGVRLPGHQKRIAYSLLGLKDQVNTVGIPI
Protocol: as §1, §2, §3, §4, §5, §6

[11] = target: 97 kinases (kinase named in endpoint) (Homo sapiens, UniProt P31751); conditions: read-out: % Ctrl, AKT2
Sequence of 97 kinases (kinase named in endpoint) (Homo sapiens, UniProt P31751) (P31751 whole entry): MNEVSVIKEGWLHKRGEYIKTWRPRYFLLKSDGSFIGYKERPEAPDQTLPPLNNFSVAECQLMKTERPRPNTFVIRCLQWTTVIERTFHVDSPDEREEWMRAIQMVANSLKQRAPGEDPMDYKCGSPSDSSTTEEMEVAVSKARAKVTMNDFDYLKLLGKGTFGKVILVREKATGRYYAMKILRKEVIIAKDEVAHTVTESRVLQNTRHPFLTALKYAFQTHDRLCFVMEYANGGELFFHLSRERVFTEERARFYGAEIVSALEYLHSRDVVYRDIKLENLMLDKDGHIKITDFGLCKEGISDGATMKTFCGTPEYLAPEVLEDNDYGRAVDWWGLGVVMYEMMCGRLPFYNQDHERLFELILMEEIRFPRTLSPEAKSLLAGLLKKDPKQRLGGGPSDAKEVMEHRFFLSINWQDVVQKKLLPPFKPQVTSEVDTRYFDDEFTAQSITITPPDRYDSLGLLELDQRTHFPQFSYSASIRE
Protocol: as §1, §2, §3, §4, §5, §6

[12] = target: 97 kinases (kinase named in endpoint) (Homo sapiens, UniProt P36897); conditions: read-out: % Ctrl, TGFBR1
Protocol: as §1, §2, §3, §4, §5, §6

[13] = target: 97 kinases (kinase named in endpoint) (Homo sapiens, UniProt P43403); conditions: read-out: % Ctrl, ZAP70
Sequence of 97 kinases (kinase named in endpoint) (Homo sapiens, UniProt P43403) (P43403 whole entry): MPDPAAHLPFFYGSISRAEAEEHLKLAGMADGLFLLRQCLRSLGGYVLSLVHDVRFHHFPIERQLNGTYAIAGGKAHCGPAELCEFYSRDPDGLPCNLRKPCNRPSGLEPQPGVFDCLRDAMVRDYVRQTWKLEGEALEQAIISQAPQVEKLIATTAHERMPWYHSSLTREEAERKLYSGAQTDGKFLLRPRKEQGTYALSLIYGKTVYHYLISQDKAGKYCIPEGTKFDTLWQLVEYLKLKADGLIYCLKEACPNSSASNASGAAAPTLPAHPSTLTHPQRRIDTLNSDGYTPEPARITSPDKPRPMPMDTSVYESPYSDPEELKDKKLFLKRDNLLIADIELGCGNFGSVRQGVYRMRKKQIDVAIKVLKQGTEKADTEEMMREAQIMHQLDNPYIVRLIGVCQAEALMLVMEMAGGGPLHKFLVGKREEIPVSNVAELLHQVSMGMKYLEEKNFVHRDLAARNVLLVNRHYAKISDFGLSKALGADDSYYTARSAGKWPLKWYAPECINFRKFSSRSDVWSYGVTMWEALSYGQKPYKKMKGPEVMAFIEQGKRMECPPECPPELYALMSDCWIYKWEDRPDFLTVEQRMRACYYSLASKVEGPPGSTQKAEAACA
Protocol: as §1, §2, §3, §4, §5, §6

[14] = target: 97 kinases (kinase named in endpoint) (Homo sapiens, UniProt P48736); conditions: read-out: % Ctrl, PIK3CG
Protocol: as §1, §2, §3, §4, §5, §6

[15] = target: 97 kinases (kinase named in endpoint) (Homo sapiens, UniProt P51812); conditions: read-out: % Ctrl, RSK2(Kin.Dom.1-N-terminal)
Protocol: as §1, §2, §3, §4, §5, §6

[16] = target: 97 kinases (kinase named in endpoint) (Homo sapiens, UniProt P78368); conditions: read-out: % Ctrl, CSNK1G2
Protocol: as §1, §2, §3, §4, §5, §6

[17] = target: 97 kinases (kinase named in endpoint) (Homo sapiens, UniProt Q02156); conditions: read-out: % Ctrl, PRKCE
Protocol: as §1, §2, §3, §4, §5, §6

[18] = target: 97 kinases (kinase named in endpoint) (Homo sapiens, UniProt Q02750); conditions: read-out: % Ctrl, MEK1
Sequence of 97 kinases (kinase named in endpoint) (Homo sapiens, UniProt Q02750) (Q02750 whole entry): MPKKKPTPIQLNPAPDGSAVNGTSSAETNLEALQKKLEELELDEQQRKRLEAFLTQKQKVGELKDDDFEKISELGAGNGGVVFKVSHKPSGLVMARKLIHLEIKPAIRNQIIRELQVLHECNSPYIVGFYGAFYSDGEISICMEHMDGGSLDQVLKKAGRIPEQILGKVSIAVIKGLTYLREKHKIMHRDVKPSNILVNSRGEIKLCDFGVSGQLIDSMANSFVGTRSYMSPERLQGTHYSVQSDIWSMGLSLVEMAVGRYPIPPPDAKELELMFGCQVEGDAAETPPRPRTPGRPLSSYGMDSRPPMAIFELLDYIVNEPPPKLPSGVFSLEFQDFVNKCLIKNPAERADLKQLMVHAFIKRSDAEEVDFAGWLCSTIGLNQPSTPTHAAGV
Protocol: as §1, §2, §3, §4, §5, §6

[19] = target: 97 kinases (kinase named in endpoint) (Homo sapiens, UniProt Q06187); conditions: read-out: % Ctrl, BTK
Sequence of 97 kinases (kinase named in endpoint) (Homo sapiens, UniProt Q06187) (Q06187 whole entry): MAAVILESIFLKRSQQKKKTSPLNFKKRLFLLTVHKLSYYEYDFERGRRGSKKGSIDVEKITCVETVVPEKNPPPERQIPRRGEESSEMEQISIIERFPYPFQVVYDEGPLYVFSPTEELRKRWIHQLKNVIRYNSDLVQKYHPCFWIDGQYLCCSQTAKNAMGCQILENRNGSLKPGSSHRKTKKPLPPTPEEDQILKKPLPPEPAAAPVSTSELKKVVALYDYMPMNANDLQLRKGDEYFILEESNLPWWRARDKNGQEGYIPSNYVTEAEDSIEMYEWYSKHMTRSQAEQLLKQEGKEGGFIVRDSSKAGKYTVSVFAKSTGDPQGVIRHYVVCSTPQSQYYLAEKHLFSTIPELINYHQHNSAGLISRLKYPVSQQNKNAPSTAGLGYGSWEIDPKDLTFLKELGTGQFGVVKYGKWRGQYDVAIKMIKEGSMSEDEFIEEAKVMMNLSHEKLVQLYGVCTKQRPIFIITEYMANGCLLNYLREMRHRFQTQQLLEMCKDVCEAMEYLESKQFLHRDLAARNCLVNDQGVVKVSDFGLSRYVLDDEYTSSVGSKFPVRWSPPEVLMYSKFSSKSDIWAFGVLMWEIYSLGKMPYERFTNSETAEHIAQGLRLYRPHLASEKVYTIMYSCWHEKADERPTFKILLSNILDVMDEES
Protocol: as §1, §2, §3, §4, §5, §6

[20] = target: 97 kinases (kinase named in endpoint) (Homo sapiens, UniProt Q13873); conditions: read-out: % Ctrl, BMPR2
Protocol: as §1, §2, §3, §4, §5, §6

[21] = target: 97 kinases (kinase named in endpoint) (Homo sapiens, UniProt Q15759); conditions: read-out: % Ctrl, p38-beta
Protocol: as §1, §2, §3, §4, §5, §6

[22] = target: 97 kinases (kinase named in endpoint) (Homo sapiens, UniProt Q15831); conditions: read-out: % Ctrl, LKB1
Sequence of 97 kinases (kinase named in endpoint) (Homo sapiens, UniProt Q15831) (Q15831 whole entry): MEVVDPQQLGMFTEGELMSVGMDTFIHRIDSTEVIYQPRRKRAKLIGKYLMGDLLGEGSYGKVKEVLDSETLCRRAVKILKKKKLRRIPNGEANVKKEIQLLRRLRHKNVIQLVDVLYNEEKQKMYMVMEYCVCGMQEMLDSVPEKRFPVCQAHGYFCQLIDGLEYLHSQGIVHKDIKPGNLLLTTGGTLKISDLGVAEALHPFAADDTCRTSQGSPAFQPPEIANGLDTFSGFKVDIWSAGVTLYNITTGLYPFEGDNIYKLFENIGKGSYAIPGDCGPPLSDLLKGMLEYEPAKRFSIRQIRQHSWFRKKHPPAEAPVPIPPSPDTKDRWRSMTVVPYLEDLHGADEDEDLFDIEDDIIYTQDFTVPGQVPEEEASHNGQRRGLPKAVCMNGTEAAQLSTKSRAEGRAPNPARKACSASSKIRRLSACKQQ
Protocol: as §1, §2, §3, §4, §5, §6

[23] = target: 97 kinases (kinase named in endpoint) (Homo sapiens, UniProt Q16539); conditions: read-out: % Ctrl, p38-alpha
Protocol: as §1, §2, §3, §4, §5, §6

[24] = target: 97 kinases (kinase named in endpoint) (Homo sapiens, UniProt Q86UX6); conditions: read-out: % Ctrl, YANK3
Protocol: as §1, §2, §3, §4, §5, §6

[25] = target: 97 kinases (kinase named in endpoint) (Homo sapiens, UniProt Q9HBH9); conditions: read-out: % Ctrl, MKNK2
Protocol: as §1, §2, §3, §4, §5, §6

[26] = target: 97 kinases (kinase named in endpoint) (Homo sapiens, UniProt Q9P1W9); conditions: read-out: % Ctrl, PIM2
Protocol: as §1, §2, §3, §4, §5, §6

[27] = target: 97 kinases (kinase named in endpoint) (Homo sapiens, UniProt Q9UPE1); conditions: read-out: % Ctrl, SRPK3
Protocol: as §1, §2, §3, §4, §5, §6

[28] = target: 97 kinases (kinase named in endpoint) (Homo sapiens, UniProt Q9Y463); conditions: read-out: % Ctrl, DYRK1B
Protocol: as §1, §2, §3, §4, §5, §6

Molecule CCCCCCCCCCCCCC(=O)N[C@@H](CC(N)=O)C(=O)N[C@@H](CC(C)C)C(=O)N[C@]1(C)CCCCCCC=CCCC[C@@](C)(C(=O)N[C@@H](CCC(=O)O)C(=O)N[C@@H](CC(C)C)C(=O)N[C@@H](CC(N)=O)C(N)=O)NC(=O)[C@H](CC(C)C)NC(=O)[C@H](CC(C)C)NC(=O)[C@H](CCCNC(=N)N)NC(=O)[C@H](CC(=O)O)NC(=O)[C@H](CC(C)C)NC(=O)[C@H](CCC(=O)O)NC1=O [compound 2012] has a remaining binding at 1 µM [1] of 98%, a remaining binding at 1 µM [2] of 87% and a remaining binding at 1 µM [3] of 93%. The remaining binding at 1 µM [4] was 55%, the remaining binding at 1 µM [5] was 95% and the remaining binding at 1 µM [6] was 100%. It also gave a remaining binding at 1 µM [7] of 96%, a remaining binding at 1 µM [8] of 99% and a remaining binding at 1 µM [9] of 95%. For the same molecule, the remaining binding at 1 µM [10] was 98%, the remaining binding at 1 µM [11] was 93% and the remaining binding at 1 µM [12] was 93%. For the same molecule, the remaining binding at 1 µM [13] was 96%, the remaining binding at 1 µM [14] was 99% and the remaining binding at 1 µM [15] was 100%. For the same molecule, the remaining binding at 1 µM [16] was 99%, the remaining binding at 1 µM [17] was 53% and the remaining binding at 1 µM [18] was 94%. The remaining binding at 1 µM [19] was 100%, the remaining binding at 1 µM [20] was 100% and the remaining binding at 1 µM [21] was 98%. It also gave a remaining binding at 1 µM [22] of 85%, a remaining binding at 1 µM [23] of 98% and a remaining binding at 1 µM [24] of 91%. For the same molecule, the remaining binding at 1 µM [25] was 100%, the remaining binding at 1 µM [26] was 100% and the remaining binding at 1 µM [27] was 79%. The remaining binding at 1 µM [28] was 91%.

CNC(=O)c1ccc(Nc2ncc(C(F)(F)F)c(NCc3nccnc3N(C)S(C)(=O)=O)n2)cc1 [defactinib] was tested, and the remaining binding at 1 µM [1] was 99%, the remaining binding at 1 µM [2] was 0.1% and the remaining binding at 1 µM [3] was 92%. It also gave a remaining binding at 1 µM [4] of 65%, a remaining binding at 1 µM [5] of 72% and a remaining binding at 1 µM [6] of 15%. It also gave a remaining binding at 1 µM [7] of 47%, a remaining binding at 1 µM [8] of 36% and a remaining binding at 1 µM [9] of 45%. The remaining binding at 1 µM [10] was 86%, the remaining binding at 1 µM [11] was 95% and the remaining binding at 1 µM [12] was 91%. The remaining binding at 1 µM [13] was 95%, the remaining binding at 1 µM [14] was 85% and the remaining binding at 1 µM [15] was 9.9%. The remaining binding at 1 µM [16] was 39%, the remaining binding at 1 µM [17] was 42% and the remaining binding at 1 µM [18] was 83%. The remaining binding at 1 µM [19] was 100%, the remaining binding at 1 µM [20] was 25% and the remaining binding at 1 µM [21] was 89%. For the same molecule, the remaining binding at 1 µM [22] was 90%, the remaining binding at 1 µM [23] was 100% and the remaining binding at 1 µM [24] was 89%. For the same molecule, the remaining binding at 1 µM [25] was 100%, the remaining binding at 1 µM [26] was 100% and the remaining binding at 1 µM [27] was 47%. For the same molecule, the remaining binding at 1 µM [28] was 14%.
